Source: ChEMBL document CHEMBL5096234, “Discovery, Optimization, and Evaluation of Selective CDK4/6 Inhibitors for the Treatment of Breast Cancer” (J Med Chem, 2022)
Active and inactive are the calls of the source. No cut-off for these calls is given here.

Columns and labels:
[1] = Oral bioavailability in Sprague-Dawley rat 10 mg/kg by LC/MS/MS analysis; type: ADME, organism-based; details: in vivo
MCF7 [2] = test: Antiproliferative activity against human MCF7 cells assessed as inhibition of cell growth at 1.5 to 6 uM incubated for 5 days by CCK-8 assay; type: functional, cell-based; details: dose 1.5-6 µM, time 5.0 day
[3] = Tmax in Sprague-Dawley rat 10 mg/kg, po by LC/MS/MS analysis; type: ADME, organism-based; details: in vivo
T47D [4] = test: Induction of cell cycle arrest in human T47D cells assessed as accumulation of cells at G2 phase at 4 uM incubated for 24 hrs by propidium iodide staining based flow cytometry analysis (reference value: 16.57%); type: functional
[5] = AUC (0 to infinity) in Sprague-Dawley rat 1 mg/kg, iv by LC/MS/MS analysis; type: ADME, organism-based; design: time infinity, dose 1 mg/kg, route iv; details: in vivo
MCF7 [6] = test: Induction of cell cycle arrest in human MCF7 cells assessed as accumulation of cells at G2 phase at 6 uM incubated for 24 hrs by propidium iodide staining based flow cytometry analysis (reference value: 29.66%); type: functional
[7] = Acute toxicity in ICR mouse assessed as heart kidney at 5000 mg/kg, po administered as single dose and measured every 2 days for 14 days by H and E staining based analysis; type: organism-based; details: in vivo, 336 h, time 14 day
T47D [8] = test: Induction of cell cycle arrest in human T47D cells assessed as accumulation of cells at G2 phase at 2 uM incubated for 24 hrs by propidium iodide staining based flow cytometry analysis (reference value: 16.57%); type: functional
[9] = Acute toxicity in ICR mouse assessed as change in heart weight at 1000 to 5000 mg/kg, po administered as single dose and measured every 2 days for 14 days; type: organism-based; details: in vivo, 336 h, dose 1000-5000 mg/kg, time 14 day
MCF-10A = test: Antiproliferative activity against human MCF-10A cells assessed as cell growth inhibition incubated for 72 hrs by CCK-8 assay; type: functional
T47D [10] = test: Induction of cell cycle arrest in human T47D cells assessed as accumulation of cells at G2 phase at 1 uM incubated for 24 hrs by propidium iodide staining based flow cytometry analysis (reference value: 16.57%); type: functional
MCF7 [11] = test: Downregulation cyclin D1 level in human MCF7 cells incubated for 24 hrs by Western blot analysis; type: functional, cell-based; details: dose 1.5-5 µM, DDE = dose-dependent effect
MCF7 [12] = test: Downregulation c-MYC level in human MCF7 cells incubated for 24 hrs by Western blot analysis; type: functional, cell-based; details: dose 1.5-5 µM, DDE = dose-dependent effect
[13] = AUC (0 to infinity) in Sprague-Dawley rat 10 mg/kg, po by LC/MS/MS analysis; type: ADME, organism-based; design: time infinity, dose 10 mg/kg, route po; details: in vivo
[14] = Acute toxicity in ICR mouse assessed as spleen lesions at 5000 mg/kg, po administered as single dose and measured every 2 days for 14 days by H and E staining based analysis; type: organism-based; details: in vivo, 336 h, time 14 day
[15] = Acute toxicity in ICR mouse assessed as change in lung weight at 1000 to 5000 mg/kg, po administered as single dose and measured every 2 days for 14 days; type: organism-based; details: in vivo, 336 h, dose 1000-5000 mg/kg, time 14 day
CDK7/Cyclin H/MNAT1 = CDK7/Cyclin H/MNAT1 (Homo sapiens, UniProt P50613); test: Inhibition of CDK7/cyclin H/MAT1 (unknown origin) in presence of ATP by time resolved-FRET assay; type: protein-complex assay
CDK7/Cyclin H/MNAT1, sequence (P51946 whole entry): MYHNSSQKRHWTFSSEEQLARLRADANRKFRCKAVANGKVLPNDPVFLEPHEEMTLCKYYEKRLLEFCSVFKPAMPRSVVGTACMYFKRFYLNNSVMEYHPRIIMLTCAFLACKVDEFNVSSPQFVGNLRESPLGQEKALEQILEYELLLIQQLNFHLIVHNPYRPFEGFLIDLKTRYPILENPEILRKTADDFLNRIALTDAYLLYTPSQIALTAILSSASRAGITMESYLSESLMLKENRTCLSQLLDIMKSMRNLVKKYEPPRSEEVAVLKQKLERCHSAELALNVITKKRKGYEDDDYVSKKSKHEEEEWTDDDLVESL
CDK7/Cyclin H/MNAT1, sequence (P50613 whole entry): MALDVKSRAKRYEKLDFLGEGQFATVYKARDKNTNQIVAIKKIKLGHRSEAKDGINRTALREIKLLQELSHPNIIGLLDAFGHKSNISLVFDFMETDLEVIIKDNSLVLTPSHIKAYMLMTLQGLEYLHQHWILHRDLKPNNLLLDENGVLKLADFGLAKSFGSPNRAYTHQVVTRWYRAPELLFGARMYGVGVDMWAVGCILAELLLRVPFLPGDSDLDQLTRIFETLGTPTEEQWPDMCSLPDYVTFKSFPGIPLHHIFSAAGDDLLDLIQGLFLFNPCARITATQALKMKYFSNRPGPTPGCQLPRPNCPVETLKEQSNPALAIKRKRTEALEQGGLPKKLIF
CDK7/Cyclin H/MNAT1, sequence (P51948 whole entry, further chain): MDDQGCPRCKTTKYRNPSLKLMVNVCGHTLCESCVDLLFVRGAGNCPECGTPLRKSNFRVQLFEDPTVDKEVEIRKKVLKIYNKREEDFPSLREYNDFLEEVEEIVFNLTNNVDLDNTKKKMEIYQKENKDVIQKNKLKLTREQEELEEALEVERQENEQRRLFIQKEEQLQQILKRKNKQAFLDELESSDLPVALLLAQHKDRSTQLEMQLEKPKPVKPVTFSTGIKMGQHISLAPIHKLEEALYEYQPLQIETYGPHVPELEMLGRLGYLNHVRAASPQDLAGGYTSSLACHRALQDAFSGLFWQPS

MCF7 [16] = test: Inhibition of clone formation in human MCF7 cells at 0.75 to 6 uM by crystal voilet staining based analysis; type: functional, cell-based; details: dose 0.75-6 µM, time 2.0 weeks
MCF7 [17] = test: Induction of cell cycle arrest in human MCF7 cells assessed as accumulation of cells at G2 phase at 1.5 uM incubated for 24 hrs by propidium iodide staining based flow cytometry analysis (reference value: 29.66%); type: functional
T47D [18] = test: Induction of cell cycle arrest in human T47D cells assessed as accumulation of cells at G1 phase at 2 uM incubated for 24 hrs by propidium iodide staining based flow cytometry analysis (reference value: 69.55 %); type: functional
[19] = MRT (0 to infinity) in Sprague-Dawley rat 10 mg/kg, po by LC/MS/MS analysis; type: ADME, organism-based; details: in vivo
[20] = MRT (0 to infinity) in Sprague-Dawley rat 1 mg/kg, iv by LC/MS/MS analysis; type: ADME, organism-based; details: in vivo
CYP3A4 = CYP3A4 (Homo sapiens, UniProt P08684); test: Inhibition of CYP3A4 in human liver microsomes using testosterone as substrate at 10 uM preincubated for 5 mins followed by NADPH addition by LC-MS/MS analysis relative to control; type: ADME, Microsome; details: probe testosterone
CYP3A4, sequence (P08684 whole entry): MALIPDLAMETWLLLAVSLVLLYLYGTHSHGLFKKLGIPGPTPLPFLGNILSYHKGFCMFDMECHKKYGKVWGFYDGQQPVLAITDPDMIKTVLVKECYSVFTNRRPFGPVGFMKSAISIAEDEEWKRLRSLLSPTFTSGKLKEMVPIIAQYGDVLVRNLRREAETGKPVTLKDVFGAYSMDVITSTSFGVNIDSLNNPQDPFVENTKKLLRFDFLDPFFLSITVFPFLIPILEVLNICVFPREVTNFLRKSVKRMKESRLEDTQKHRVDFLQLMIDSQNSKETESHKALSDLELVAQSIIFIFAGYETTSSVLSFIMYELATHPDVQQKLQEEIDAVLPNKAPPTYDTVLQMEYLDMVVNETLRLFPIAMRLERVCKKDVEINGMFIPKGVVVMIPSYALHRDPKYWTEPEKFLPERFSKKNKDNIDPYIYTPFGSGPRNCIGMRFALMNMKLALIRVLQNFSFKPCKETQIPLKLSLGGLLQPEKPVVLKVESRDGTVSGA

[21] = Acute toxicity in ICR mouse assessed as liver lesions at 5000 mg/kg, po administered as single dose and measured every 2 days for 14 days by H and E staining based analysis; type: organism-based; details: in vivo, 336 h, time 14 day
CDK9/cyclin T1 = CDK9/cyclin T1 (Homo sapiens, UniProt P50750); test: Inhibition of CDK9/Cyclin T1 (unknown origin) in presence of ATP by time resolved-FRET assay; type: protein-complex assay
CDK9/cyclin T1, sequence (O60563 whole entry): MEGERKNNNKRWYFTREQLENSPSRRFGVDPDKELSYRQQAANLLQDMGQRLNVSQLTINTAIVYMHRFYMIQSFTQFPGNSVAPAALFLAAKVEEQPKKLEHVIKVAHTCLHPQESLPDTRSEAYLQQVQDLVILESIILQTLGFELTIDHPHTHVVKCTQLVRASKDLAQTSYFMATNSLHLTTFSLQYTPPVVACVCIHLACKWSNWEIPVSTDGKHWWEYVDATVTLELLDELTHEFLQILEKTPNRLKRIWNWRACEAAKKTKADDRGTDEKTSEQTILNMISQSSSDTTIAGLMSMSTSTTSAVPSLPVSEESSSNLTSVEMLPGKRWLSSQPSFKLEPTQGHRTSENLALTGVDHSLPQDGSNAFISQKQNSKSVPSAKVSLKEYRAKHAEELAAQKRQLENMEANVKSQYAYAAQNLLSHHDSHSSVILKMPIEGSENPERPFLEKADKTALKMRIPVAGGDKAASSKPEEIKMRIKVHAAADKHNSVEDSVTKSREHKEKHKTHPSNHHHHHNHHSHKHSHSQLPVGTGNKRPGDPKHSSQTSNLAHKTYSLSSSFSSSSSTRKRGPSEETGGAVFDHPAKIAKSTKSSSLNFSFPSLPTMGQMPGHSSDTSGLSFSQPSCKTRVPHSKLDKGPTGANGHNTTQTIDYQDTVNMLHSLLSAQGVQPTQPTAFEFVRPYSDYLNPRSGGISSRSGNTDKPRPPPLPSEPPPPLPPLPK
CDK9/cyclin T1, sequence (P50750 whole entry): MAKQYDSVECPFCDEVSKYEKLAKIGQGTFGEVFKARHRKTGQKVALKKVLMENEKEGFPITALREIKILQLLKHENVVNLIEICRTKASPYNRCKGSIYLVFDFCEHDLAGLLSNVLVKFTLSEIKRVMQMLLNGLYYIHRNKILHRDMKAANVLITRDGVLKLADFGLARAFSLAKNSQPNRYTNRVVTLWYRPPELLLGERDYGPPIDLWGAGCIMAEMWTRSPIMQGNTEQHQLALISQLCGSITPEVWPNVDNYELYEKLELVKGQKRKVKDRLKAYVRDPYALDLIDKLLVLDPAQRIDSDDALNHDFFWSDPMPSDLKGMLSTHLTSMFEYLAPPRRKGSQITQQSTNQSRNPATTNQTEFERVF

[22] = molecular target: T1, Retinoblastoma-associated protein (Homo sapiens) (UniProt P06400); test: Inhibition of RB phosphorylation in human MCF7 cells at 1.5 to 5 uM incubated for 24 hrs by Western blot analysis; type: cell-based; details: dose 1.5-5 µM
T1 sequence (whole entry): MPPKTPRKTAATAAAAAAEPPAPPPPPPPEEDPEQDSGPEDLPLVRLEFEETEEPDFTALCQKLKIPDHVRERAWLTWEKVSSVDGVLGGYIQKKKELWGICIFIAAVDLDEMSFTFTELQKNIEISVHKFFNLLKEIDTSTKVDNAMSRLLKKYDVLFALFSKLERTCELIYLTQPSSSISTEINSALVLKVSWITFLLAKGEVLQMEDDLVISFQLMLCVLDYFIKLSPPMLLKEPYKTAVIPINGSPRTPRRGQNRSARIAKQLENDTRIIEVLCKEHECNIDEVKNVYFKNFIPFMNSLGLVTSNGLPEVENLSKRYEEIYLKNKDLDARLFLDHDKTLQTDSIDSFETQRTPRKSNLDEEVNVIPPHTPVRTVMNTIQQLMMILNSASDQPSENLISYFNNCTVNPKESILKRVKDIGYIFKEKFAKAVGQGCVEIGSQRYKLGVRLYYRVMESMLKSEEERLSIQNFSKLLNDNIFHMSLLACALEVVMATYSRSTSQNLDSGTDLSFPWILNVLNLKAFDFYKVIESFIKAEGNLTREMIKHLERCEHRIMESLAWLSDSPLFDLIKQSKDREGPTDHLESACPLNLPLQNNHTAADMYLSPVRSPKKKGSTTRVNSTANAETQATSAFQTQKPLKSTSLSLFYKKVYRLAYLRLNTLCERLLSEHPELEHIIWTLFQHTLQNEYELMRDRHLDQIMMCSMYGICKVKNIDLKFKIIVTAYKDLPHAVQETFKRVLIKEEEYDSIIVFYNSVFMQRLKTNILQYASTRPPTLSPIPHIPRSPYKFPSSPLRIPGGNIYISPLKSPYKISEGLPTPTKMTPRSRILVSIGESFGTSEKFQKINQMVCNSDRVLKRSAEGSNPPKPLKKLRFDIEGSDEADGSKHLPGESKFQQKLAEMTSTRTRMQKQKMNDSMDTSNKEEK

In the case of CCN1CCc2cc(-c3nc(Nc4ccc(N5CCNCC5)cn4)ncc3F)ccc2C1=O, the bioavailability [1] is reported as 43%, the inhibition (MCF7 [2]) is reported as “Active” and the Tmax [3] is reported as 6 h. For the same molecule, the Activity (T47D [4]) was 5.87%, the AUC(0-inf) [5] was 373 ng·h/mL and the Activity (MCF7 [6]) was 10.67%. For the same molecule, the Activity [7] was “Non-Toxic”, the Activity (T47D [8]) was 6.06% and the Activity [9] was “Non-Toxic”. For the same molecule, the GI50 (MCF-10A) was 17.7 µM, the Activity (T47D [10]) was 7.59% and the Activity (MCF7 [11]) was “Dde”. For the same molecule, the Activity (MCF7 [12]) was “Dde”, the AUC(0-inf) [13] was 1610 ng·h/mL and the Activity [14] was “Non-Toxic”. For the same molecule, the Activity [15] was “Non-Toxic”, the IC50 (CDK7/Cyclin H/MNAT1) was 2.6 µM and the inhibition (MCF7 [16]) was “Active”. For the same molecule, the Activity (MCF7 [17]) was 13.57%, the Activity (T47D [18]) was 85.48% and the MRT inf [19] was 9.11 h. For the same molecule, the MRT inf [20] was 3.5 h, the inhibition at 10 µM (CYP3A4) was 12.4% and the Activity [21] was “Non-Toxic”. The IC50 (CDK9/cyclin T1) was 2.66 µM and the inhibition [22] was “Active”.
